Data reported in patent US20130028937A1 (LABORATORIOS DEL DR. ESTEVE, S.A., priority 2009, published 2013).

What was measured:
[1] = tested on: locomotor activity in mice; assay: Locomotor activity in actimeter cages; details: CD-1 mice, 30 min after administration
Method: Male, CD-1 mice (14-18 g, Charles River) were housed in a climate-controlled room for at least 5 days prior to testing. Food and water were available ad libitum up to test time.
The dosing volume was 10 ml/kg.
Eight standard actimeter cages (Linton Instrumentation, Inc.) equipped with infrared beams for the detection of movement were used. After administering the compounds, the animals were returned to their homecages and then placed in the locomotor activity cages 30 min later. Moving time was measured during 30 min, with readings performed every 5 min.

[2] = tested on: incision-induced mechanical allodynia in the rat hind paw; assay: Mechanical allodynia (von Frey filaments) in postoperative pain model after paw incision; assay type: in vivo; details: for efficacy on mechanical allodynia (in words): dose-response curve
Method: Following plantar incision, rats show decreases in response thresholds graded von Frey filaments (mechanical hypersensitivity) (Brennan et al., Pain 1996, 64, 493).
Male, Wistar rats (120-160 g, Harlan, Italy) were housed in a climate-controlled room for at least 5 days prior to testing. Food and water were available ad libitum up to test time.
The dosing volume was 10 ml/kg. The antiallodynic response of the animal was subsequently evaluated 60 min after drug administration.
Rats were anaesthetized with 3% isofluorane for veterinary use, employing an Ohmeda vaporizer and an anaesthesia chamber. Anaesthesia was kept during the surgical operation by a tube which directs the isoflurane vapours to the animal's snout. Once the rats were anaesthetised, they were laid down in a prone position and their right hindpaws were cleaned out with alcohol. Then, a 1 cm longitudinal incision was made with a number 23 scalpel, through skin and fascia of the plantar aspect of the paw, starting 0.5 cm from the proximal edge of the heel and extending toward the toes. Therefore, both superficial (skin) and deep (muscle) tissues and nerves were injured. Finally, the skin of the paw was stitched with a suturing stitch with breaded silk (3.0) and the wound was cleaned out with povidone.
The drugs were tested 4 hours after the surgery (plantar incision); 60 minutes after the administration of the product, one behavioural endpoint was evaluated: mechanical hypersensitivity or allodynia.
Mechanical allodynia was tested using von Frey filaments. Animals were placed in methacrylate cylinders on an elevated surface, with metallic mesh floor perforated in order to apply the filaments. After an acclimation period of about 30 minutes within the cylinders, both hindpaws were stimulated (the injured and the non-injured paw, serving the latter as control), starting with the lowest force filament (0.4 g) and reaching up to a 15 g filament. The animal's response to pain was manifested by the withdrawal of the paw as a consequence of the painful stimulus caused by a filament. The pressure (force in grams) threshold eliciting the withdrawal of the paw was recorded.
The method is based on the comparison of the effect of several doses of the combination at a determined ratio with respect to the effects achieved using different doses of each of the two agents. […] Where it is established that Zt<Zadd for a specific fixed-ratio, then that composition has a synergistic effect. The theoretical additive dose (Zadd) for the co-crystal was then calculated and compared with the experimental ED50 of the combination (Zt) as described in Tallarida, Drug synergism 2001, 298, 865-872 [10].

[3] = Wistar rats, intraperitoneal, 4 hours after plantar incision, 60 min after administration

| Compound | effect on locomotor activity (moving time) ([1]; intraperitoneal, 20, 40, 80 and 160 mg/kg, p>0.05) | inhibition of mechanical allodynia compared with each single drug at equivalent doses ([2]; Wistar rats, intraperitoneal, 60 min after administration) | efficacy on mechanical allodynia (in words) [2, 3] | isobolographic analysis of interaction (Zt vs Zadd) ([2]; molar ratio 1:1, experimental ED50 (Zt) vs theoretical Zadd, p>0.05 Student's t-test) | effect on locomotor activity (moving time) ([1]; intraperitoneal, 80 mg/kg, p<0.001) | effect on locomotor activity (moving time) ([1]; intraperitoneal, doses lower than 80 mg/kg) | maximum efficacy on mechanical allodynia ([2]; Wistar rats, intraperitoneal, 4 hours after plantar incision, 60 min after administration, ceiling effect) [%] | effect on locomotor activity (moving time) ([1]; intraperitoneal, 160 mg/kg, p<0.05 compared with vehicle) | effect on locomotor activity (moving time) ([1]; intraperitoneal, doses lower than 160 mg/kg) |
| --- | --- | --- | --- | --- | --- | --- | --- | --- | --- |
| COc1ccc(C(CN(C)C)C2(O)CCCCC2)cc1.Cc1ccc(-c2cc(C(F)(F)F)nn2-c2ccc(S(N)(=O)=O)cc2)cc1 (racemic) [Celecoxib—(rac)-venlafaxine co-crystal (1:1)] | did not show any significant side-effect | superior benefit | full efficacy | additive interaction |  |  |  |  |  |
| COc1ccc(C(CN(C)C)C2(O)CCCCC2)cc1 (racemic) [Venlafaxine, (rac)-1-[2-dimethylamino-1-(4-methoxyphenyl)-ethyl]cyclohexanol] |  |  |  |  | significant side-effects increasing | no statistically significant effects | 58.40 |  |  |
| Cc1ccc(-c2cc(C(F)(F)F)nn2-c2ccc(S(N)(=O)=O)cc2)cc1 [Celecoxib, 4-[5-(4-methylphenyl)-3-(trifluoromethyl)pyrazol-1-yl]benzenesulfonamide] |  |  | full efficacy |  |  |  |  | significant side-effects decreasing | No effects |
